In PMC9609996, “SAR Study and Molecular Mechanism Investigation of Novel Naphthoquinone-furan-2-cyanoacryloyl Hybrids with Antitumor Activity” (Pharmaceutics, 2022):

How the values were obtained:
A549 = assay: CCK-8 anti-proliferation assay, A549; format: cell-based, human; details: mean ± SD; for IC50: 48 h
Experimental: (§1) Human cervical cancer HeLa, human prostate cancer PC3, human colonic carcinoma HCT116, human lung carcinoma A549, human breast cancer MDA-MB-231, mouse melanoma B16, human ovarian cancer SKOV3, human hepatoma Hep3B, and human liver L02 cells were purchased from the Cell Bank of Shanghai Institute of Biochemistry and Cell Biology, Chinese Academy of Sciences (Shanghai, China). The HeLa, A549, B16, PC3, MDA-MB-231, HCT116, and L02 cells were cultured in Dulbecco’s modified Eagle medium (DMEM, Gibco Inc.; Gaithersburg, MD, USA). All cultures were supplied with 10% fetal bovine serum (FBS; YHSM, Beijing, China), 100 IU/mL of penicillin, and 100 μg/mL of streptomycin, and cells were incubated at 37 °C in an atmosphere of 5% CO2.
(§2) A CCK-8 kit (MCE, USA) was used to perform a CCK-8 assay. Cells were plated and grown in the 96-well plates for the indicated period (48 h) in the incubator, followed by an incubation with the CCK-8 solutions for 1–4 h. Subsequently, the absorbance (450 nm) was measured by a microplate reader. The median inhibitory concentration (IC50) was determined from the dose–response curve. Experiments were performed in a triplicate.

HCT116 = assay: CCK-8 anti-proliferation assay, HCT116; format: cell-based, human; details: Homo sapiens, mean ± SD
Experimental: as §1, §2

recombinant STAT3 = recombinant STAT3 (Homo sapiens, UniProt P40763); assay: Biolayer interferometry (BLI) assay; details: 5c 7.81 to 250 μM, 25 °C, read-out: binding affinity (KD)
Sequence of recombinant STAT3 (P40763 whole entry): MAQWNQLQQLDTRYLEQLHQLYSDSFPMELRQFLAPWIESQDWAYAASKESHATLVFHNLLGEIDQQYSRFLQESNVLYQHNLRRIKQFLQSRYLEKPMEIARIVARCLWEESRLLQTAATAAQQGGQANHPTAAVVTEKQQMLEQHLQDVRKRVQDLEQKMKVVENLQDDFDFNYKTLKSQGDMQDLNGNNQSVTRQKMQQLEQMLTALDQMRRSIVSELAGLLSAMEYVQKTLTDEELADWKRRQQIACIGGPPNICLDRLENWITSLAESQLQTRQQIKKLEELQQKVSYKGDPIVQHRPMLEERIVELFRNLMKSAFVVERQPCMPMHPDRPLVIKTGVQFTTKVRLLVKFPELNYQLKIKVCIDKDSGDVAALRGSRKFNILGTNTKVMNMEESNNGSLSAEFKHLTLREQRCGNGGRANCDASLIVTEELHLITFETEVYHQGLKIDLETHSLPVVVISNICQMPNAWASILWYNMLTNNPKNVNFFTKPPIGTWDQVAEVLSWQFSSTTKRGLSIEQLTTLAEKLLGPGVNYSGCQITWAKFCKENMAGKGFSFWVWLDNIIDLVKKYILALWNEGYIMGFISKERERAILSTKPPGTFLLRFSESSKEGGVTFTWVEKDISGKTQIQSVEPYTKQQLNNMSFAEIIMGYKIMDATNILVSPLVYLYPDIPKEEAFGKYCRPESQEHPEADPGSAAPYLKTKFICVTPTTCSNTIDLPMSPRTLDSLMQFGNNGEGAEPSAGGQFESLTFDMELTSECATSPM
Experimental: To confirm that compound 5c is a direct STAT3 inhibitor, a BLI (Biolayer interferometry) analysis was performed. Briefly, recombinant STAT3 with a His-tag was immobilized on SSA biosensors, and the dissociation constants were determined by measuring the binding to serial dilutions of 5c at concentrations ranging from 7.81 to 250 μM (Figure 10A). The signal was collected, and the kinetic affinity was calculated by the software. The steady-state curve reaches saturation (Figure 10B).
Purified recombinant STAT3 proteins were biotinylated using the EZ-Link biotinylation reagent (Thermo Fisher Scientific). Briefly, the protein and biotinylation reagent were mixed with a 1:1 molar ratio in PBS at 4 °C. Low biotinylation reagent concentration was applied to avoid protein over-biotinylation. These reaction mixtures were incubated at room temperature for 30 min to allow for the completion of the reaction. Reaction mixture was then dialyzed using 10K MWCO dialysis cassettes (Thermo Fisher Scientific) to remove unreacted biotinylation reagent.
BLI experiments were performed using an OctetRED96 instrument from ForteBio. All assays were run at 25 °C with continuous 1000 RPM shaking. […] The resulting data were analyzed based on a 1:1 binding model from which the kon and koff values were obtained. After, the KD values were calculated.

HeLa cells = assay: Wound healing assay; format: cell-based, human; details: 6 μM, 48 h
Experimental: A total of 1 × 10^6 HeLa cells/well in the logarithmic growth phase were seeded into 6-well plates. When the cell density reached 80–90%, a scratch was made in the monolayer in the middle of the well with a 200 μL pipette tip. The tip was kept perpendicular to the bottom of the well to obtain a straight gap. The detached cells were washed away and removed. Wound healing within the same scraped line was then observed and photographed at the indicated time points (0 h, 24 h, and 48 h). Images were taken at 0 h, 24 h and 48 h after scraping using a phase-contrast microscope. The wound closure was calculated as a percentage (%) of the difference in the width of the wound between 0 h, 24 h and 48 h relative to 0 h, as described below: Wound closure (%) = (Width of wound at 0 h − Width of wound at 24 h)/Width of wound at 0 h × 100%

STAT3 in HeLa cells = assay: Western blot, STAT3 and p-STAT3 (Y705); format: cell-based, human; details: 6–12 μM, 24 h
Experimental: As many quinone compounds have anti-proliferation activity by inhibiting the STAT3 [34], we evaluated whether compound 5c could inhibit its phosphorylation. HeLa cells were incubated with different concentrations (6–12 μM) of 5c for 24 h. Then, the levels of total STAT3 and phosphorylated STAT3 at the tyrosine 705 residue were detected by a Western blot analysis.
Protein levels were determined by the standard Western blot assay. HeLa cells were incubated with different concentrations of compound 5c or 0.1% DMSO for 24 h. […] The bound immuno-complexes were detected using a ChemiDOC XRS+ system (BioRad Laboratories, Hercules, CA, USA).

IC50 (A549): 35.27 ± 0.07 µM
IC50 (A549; Homo sapiens, A549, 48 h): > 20.5 µM
IC50 (HCT116; HCT-116, 48 h): 13.38 ± 0.04 µM
Kd (recombinant STAT3): 13 µM
SMILES: N#C/C(=C\c1ccc(C2=CC(=O)c3ccccc3C2=O)o1)C(=O)NCCN1CCOCC1 [Compound 5c, (E)-2-cyano-3-(5-(1,4-dioxo-1,4-dihydronaphthalen-2-yl)furan-2-yl)-N-(2-morpholinoethyl)acrylamide]
inhibition at 20 µM (A549; Homo sapiens, A549, 20 μM, read-out: Inhibition Rate (%) at 20 μM A549): 24.69 ± 0.04%
inhibition at 20 µM (HCT116; HCT-116, 20 μM, read-out: Inhibition Rate (%) at 20 μM HCT116): 67.67 ± 0.01%
cell migration (HeLa cells): significantly inhibited
Y705 STAT3 phosphorylation (STAT3 in HeLa cells): dose-dependently abrogated
level of total STAT3 (STAT3 in HeLa cells): slightly down-regulated
